Test results from patent US20130101628A1 (NORTHWESTERN UNIVERSITY, priority 2011, published 2013).
* marks the point of attachment. Palmitoyl = CCCCCCCCCCCCCCCC(=O)*

B1: VEGF-PA (CH3(CH2)14C(O)-VVAAKKKGKLTWQELYQLKYKGI-NH2) (peptide)
peptide: Palmitoyl-VVAAKKKGKLTWQELYQLKYKGI-NH2
SMILES: CCCCCCCCCCCCCCCC(=O)N[C@H](C(=O)N[C@H](C(=O)N[C@@H](C)C(=O)N[C@@H](C)C(=O)N[C@@H](CCCCN)C(=O)N[C@@H](CCCCN)C(=O)N[C@@H](CCCCN)C(=O)NCC(=O)N[C@@H](CCCCN)C(=O)N[C@@H](CC(C)C)C(=O)N[C@H](C(=O)N[C@@H](Cc1c[nH]c2ccccc12)C(=O)N[C@@H](CCC(N)=O)C(=O)N[C@@H](CCC(=O)O)C(=O)N[C@@H](CC(C)C)C(=O)N[C@@H](Cc1ccc(O)cc1)C(=O)N[C@@H](CCC(N)=O)C(=O)N[C@@H](CC(C)C)C(=O)N[C@@H](CCCCN)C(=O)N[C@@H](Cc1ccc(O)cc1)C(=O)N[C@@H](CCCCN)C(=O)NCC(=O)N[C@H](C(N)=O)[C@@H](C)CC)[C@@H](C)O)C(C)C)C(C)C
B2: mutant PA (CH3(CH2)14C(O)-VVAAKKKGKLTAQELVFLKVKGI-NH2) (peptide)
peptide: Palmitoyl-VVAAKKKGKLTAQELVFLKVKGI-NH2
SMILES: CCCCCCCCCCCCCCCC(=O)N[C@H](C(=O)N[C@H](C(=O)N[C@@H](C)C(=O)N[C@@H](C)C(=O)N[C@@H](CCCCN)C(=O)N[C@@H](CCCCN)C(=O)N[C@@H](CCCCN)C(=O)NCC(=O)N[C@@H](CCCCN)C(=O)N[C@@H](CC(C)C)C(=O)N[C@H](C(=O)N[C@@H](C)C(=O)N[C@@H](CCC(N)=O)C(=O)N[C@@H](CCC(=O)O)C(=O)N[C@@H](CC(C)C)C(=O)N[C@H](C(=O)N[C@@H](Cc1ccccc1)C(=O)N[C@@H](CC(C)C)C(=O)N[C@@H](CCCCN)C(=O)N[C@H](C(=O)N[C@@H](CCCCN)C(=O)NCC(=O)N[C@H](C(N)=O)[C@@H](C)CC)C(C)C)C(C)C)[C@@H](C)O)C(C)C)C(C)C

Assays:
VEGF receptor 1 = VEGF receptor 1 (human, UniProt P17948 27-1338); assay: cell-based or functional assay
HUVECs [1] = assay: HUVEC migration scratch assay; type: cell-based, human; settings: 1 μM in EBM with 0.5% FBS, 18 hours; untreated 25.2%
Experimental: To evaluate cell migration, endothelial basal media (EBM) without growth factors (Lonza) was supplemented with 0.5% FBS in order to prevent apoptosis but not promote significant migration or proliferation. Cells were grown to confluence in a 12 well plate and a 1 ml pipette tip was used to create a denuded scratch and the surface was washed twice with PBS to remove detached cells. The average scratch width at the initial time-point was […] Markings were placed on the underside of the plate to ensure the same region of the scratch was recorded in each image. […] The total pixel area of the scratch at the initial time-point was recorded using ImageJ analysis software, and the percent migration was determined from the reduction in denuded area at 18 hours.

HUVECs [2] = assay: HUVEC proliferation (CyQUANT-NF cell number); type: cell-based, human; settings: 1 μM in EGM, 48 hours; untreated control 100.0%
Experimental: In vitro studies were performed using HUVECs, a primary endothelial cell that is VEGF-responsive and frequently used as a model endothelial cell for angiogenesis studies in vitro [31].
To evaluate proliferation, HUVECs were plated at 5000 per well in a 96 well plate. […] Additionally, unsupplemented growth media was used as a control. After 48 hours, cell number was quantified using CyQUANT-NF (Invitrogen) and a standard fluorescent microplate reader. Cell number is expressed relative to the group treated with unsupplemented growth media.

ischemic hind-limb = assay: Murine hind-limb ischemia (HLI) model; type: in vivo, mice; settings: for limb motor function score / tissue (limb) salvage score: single i.m. injection 25 μl of 2 mM; for limb motor function score: grade 1-5; for tissue (limb) salvage score: grade 1-6; for Rota Rod walking time prior to failure: saline 90.4 seconds; for number of CD31+ capillaries in ischemic limb muscle: tissue harvested at day 28, saline 893/mm2
Experimental: For the HLI procedure, eight week old male FVB wild-type mice (Charles River) were anesthetized by intraperitoneal injection of avertin (125 mg/kg). By means of a dissecting microscope, the femoral nerve was carefully separated from the vessel bundle. The right femoral artery was ligated and excised, including all superficial and deep branches. Critical limb ischemia was immediately verified by laser Doppler imaging (LDPI, MoorLDI-SIM, Moor Instruments, Ltd) to ensure the ratio (ischemic/non-ischemic limb) was ≦0.20. At postoperative day 3, outliers with low ischemia were triaged based on LDPI (ratio ischemic/nonischemic 0.30) as were outliers with extreme ischemia (necrotic demarcation of entire limb), determined by macroscopic evaluation. […] For follow-up, animals underwent reevaluations with LDPI at postoperative day 7, 14, and 28 before animals were sacrificed (CO, asphyxia) for tissue harvest at day 28. At each time-point, tissue perfusion was measured via LDPI, measuring blood flow in both the ischemic and non-ischemic limb and reporting results as the ratio of these two measurements. All LDPI measurements were taken on a 37° C. heating pad to control body temperature. In addition, motor function and tissue damage was semi-quantitatively assessed on post-operative day 7, 14, 21 and 28 by established scoring systems. Tissue damage in the ischemic limb (limb salvage score) was graded as full recovery (grade 6), minor necrosis or nail loss (grade 5), partial toe amputation (grade 4), total toe amputation (grade 3), partial/total foot amputation (grade 2) or partial/total limb amputation (grade 1) (modified from). Limb motor function was graded as unrestricted (grade 5), no active use of toe(s) or spreading (grade 4), restricted foot use (grade 3), no use of foot (grade 2) or no use of limb at all (grade 1) (modified from). Finally, walking capacity was measured via a Rota Rod apparatus. […] The mean of two assessments was used as for failure time for each animal. At day 28, muscle tissue from the ischemic limb was harvested, fixed in methanol, paraffin-embedded, and cross-sectioned (6-μm) for histological immunostaining. Briefly, sections were blocked with 10% donkey serum (30 min, RT). Primary antibodies were diluted in PBS containing BSA, and applied to tissue slices for 2 hrs at 37° C. Sections were stained for CD31, an endothelial-specific marker, using rat anti-CD31 antibodies (BD Pharmingen Inc) and smooth-muscle α-actin (αSMA), a vascular smooth muscle marker, using rabbit-anti-αSMA (Sigma-Aldrich Co.). For immunofluorescent detection, primary antibodies were resolved with Alexa-Fluor-conjugated secondary antibodies (Invitrogen Corporation, Carlsbad, Calif., USA dilution) and nuclei were counterstained with DAPI (Research Organics). Slides were imaged using fluorescent microscopy (Zeiss), and CD31+capillary forms and CD31+/sMA+]mature microvessels/arterioles were quantified in 3 separate high-power fields (20×) from 3 independent sections in each animal (9 images/animal). All error bars indicate the standard error of the mean. Differences between groups were determined using a one-way analysis of variance (ANOVA) with a Bonferroni multiple comparisons post-hoc test using GraphPad InStat v3.0b. […] VEGF-PA or control treatments were administered by an intramuscular injection three days following the induction of critical ischemia by ligation and excision of the right femoral artery and all superficial and deep branches, as described above. Animals were assessed serially throughout the study for motor function and limb salvage and Laser Doppler perfusion imaging (LDPI) was used to assess tissue perfusion. At the end of the study, exercise endurance was recorded on a Rota Rod treadmill and tissue was harvested for immunohistological staining of capillaries to observe effects on the microcirculation.

HUVECs [3] = assay: HUVEC survival after serum-starvation (Annexin V-PE apoptosis); type: cell-based, human; settings: 1 μM in EBM, serum-starvation 24 hours; untreated 31.7%
Experimental: To evaluate cell survival, endothelial basal media (EBM) without growth factors (Lonza) was used to induce a serum-starvation. Cells were plated in 12 well plates and grown to confluence with standard growth media. […] Cells were grown in these conditions for 24 hours. Survival was quantified using Annexin V: PE staining with 7-AAD vital staining (BD Biosciences) following provided assay instructions and analyzed on a DakoCytomation CyAn. Survival was assessed by determining the fraction of cells that were apoptotic (Annexin V-PE positive).

[4] = test system: chicken chorioallantoic membrane (CAM); assay: Shell-less chicken chorioallantoic membrane (CAM) angiogenesis assay; type: in vivo; settings: 2 mM in PBS dried on coverslip, three days following treatment; saline 132%
From the text: An established assay reflecting in vivo angiogenesis, the chicken chorioallantoic membrane (CAM) assay, was used to evaluate the angiogenic potential of the VEGF-PA of the present examples. This assay utilizes the extra-embryonic allantois, a tissue derived from the mesoderm that develops into a densely vascularized membrane. A common deviation from the traditional assay is to remove the shell and conduct the assay on a shell-less embryo, termed the shell-less CAM assay, as we have performed here. Fertilized white leghorn chicken eggs (Phil's Fresh Eggs, Forreston, Ill.) were received and cultured in a temperature controlled, humidified egg incubator. On embryonic day 3, eggs were cracked within a sterile tissue culture hood into round 100 mm petri dishes. Fertilized embryos were then transferred to a water-jacketed CO2 incubator, set to 37.5° C., 1% CO2 and 100% relative humidity. On embryonic day 10, the material treatment was dissolved at 2 mM in PBS, evaporated onto the surface of a 5 mm round glass cover slip, and placed facing down on top of the CAM (n=16/group). Digital images were captured through the eyepiece of a Nikon stereomicroscope and vessel density was quantified by the number of intersections of vessel structures with the edge of the cover slip and expressed relative to the initial time-point. Images were captured daily, beginning at embryonic day 10 and culminating on embryonic day 13, the standard range over which the CAM assay is performed. Additionally, images were assessed qualitatively for morphological differences in the CAM vasculature including spoking, branching and leakage.

[5] = molecular target: T1, VEGF receptor 2 (VEGFR2 or KDR) (Homo sapiens, UniProt P35968); assay: Sandwich ELISA of phosphorylated VEGFR2 in lysates of stimulated HUVEC; type: cell-based; settings: HUVEC, 1 μM, 2 minutes exposure; untreated control 1.000±0.109
T1 construct: host or cells: HUVEC
Experimental: Human umbilical vein endothelial cells (HUVECs) and complete endothelial cell growth media (EGM) were purchased (Genlantis, San Diego, Calif.), passaged two times following receipt, and cryo-preserved in media with 5% DMSO. Cells were thawed as needed and grown to confluence in a […] flasks (VWR Falcon) prior to plating for experiments.
Phosphorylation of both VEGFRI and VEGFR2 was assayed using commercially available assay kit (R&D Systems, Minneapolis, Minn.) following the recommended protocol. First, confluent HUVECs plated in 24 well plates were starved for 5 hours in serum-free defined media (SFDM, Genlantis) specifically designed to maintain cells in a growth factor-free setting for growth factor signaling and metabolic assays. Following starvation, the various treatments were dissolved in SFDM to a concentration of 1 μM. […] Cells were exposed to treatment for 2 minutes. To evaluate the time-course of phosphorylation the same protocol was followed and cells were exposed to VEGF-PA for 0, 1, 3, 5, 10, 15, 20, 25, 30, 40, 50, and 60 minutes.

[6] = 14 days after induction of ischemia

VEGF receptor 1, sequence (P17948 27-1338): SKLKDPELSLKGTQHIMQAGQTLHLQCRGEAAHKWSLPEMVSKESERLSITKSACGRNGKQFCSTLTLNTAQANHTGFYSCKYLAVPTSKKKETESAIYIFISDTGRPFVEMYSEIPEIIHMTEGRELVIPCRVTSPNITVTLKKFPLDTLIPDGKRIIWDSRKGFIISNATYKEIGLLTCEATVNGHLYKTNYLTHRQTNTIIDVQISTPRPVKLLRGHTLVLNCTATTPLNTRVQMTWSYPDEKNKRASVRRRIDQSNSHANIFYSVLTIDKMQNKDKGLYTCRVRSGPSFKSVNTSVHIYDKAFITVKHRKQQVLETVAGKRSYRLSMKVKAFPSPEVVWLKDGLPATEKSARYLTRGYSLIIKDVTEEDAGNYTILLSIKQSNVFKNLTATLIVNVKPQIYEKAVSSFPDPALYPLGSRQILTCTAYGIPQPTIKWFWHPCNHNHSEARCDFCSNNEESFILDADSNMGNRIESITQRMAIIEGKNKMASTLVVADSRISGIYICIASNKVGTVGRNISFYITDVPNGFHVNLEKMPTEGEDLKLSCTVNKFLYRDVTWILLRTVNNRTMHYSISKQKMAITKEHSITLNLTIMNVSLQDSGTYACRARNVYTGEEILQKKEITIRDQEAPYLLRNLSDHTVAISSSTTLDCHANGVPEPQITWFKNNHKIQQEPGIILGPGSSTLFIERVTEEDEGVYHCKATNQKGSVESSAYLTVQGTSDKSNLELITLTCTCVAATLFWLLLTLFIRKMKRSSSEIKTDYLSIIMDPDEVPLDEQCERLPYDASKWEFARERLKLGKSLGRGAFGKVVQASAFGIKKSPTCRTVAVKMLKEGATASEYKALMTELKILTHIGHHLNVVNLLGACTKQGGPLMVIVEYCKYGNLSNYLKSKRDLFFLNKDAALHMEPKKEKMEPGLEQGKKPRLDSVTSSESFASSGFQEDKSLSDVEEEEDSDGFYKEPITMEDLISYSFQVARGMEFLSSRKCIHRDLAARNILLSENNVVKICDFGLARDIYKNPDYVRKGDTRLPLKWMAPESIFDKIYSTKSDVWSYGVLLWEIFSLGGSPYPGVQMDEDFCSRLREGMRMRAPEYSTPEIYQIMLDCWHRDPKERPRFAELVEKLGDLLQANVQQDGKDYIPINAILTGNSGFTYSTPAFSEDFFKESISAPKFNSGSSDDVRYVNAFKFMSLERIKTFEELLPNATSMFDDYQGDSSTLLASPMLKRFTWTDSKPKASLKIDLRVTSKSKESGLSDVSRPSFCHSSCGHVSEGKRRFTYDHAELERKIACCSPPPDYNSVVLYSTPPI
T1 sequence (P35968 20-1356): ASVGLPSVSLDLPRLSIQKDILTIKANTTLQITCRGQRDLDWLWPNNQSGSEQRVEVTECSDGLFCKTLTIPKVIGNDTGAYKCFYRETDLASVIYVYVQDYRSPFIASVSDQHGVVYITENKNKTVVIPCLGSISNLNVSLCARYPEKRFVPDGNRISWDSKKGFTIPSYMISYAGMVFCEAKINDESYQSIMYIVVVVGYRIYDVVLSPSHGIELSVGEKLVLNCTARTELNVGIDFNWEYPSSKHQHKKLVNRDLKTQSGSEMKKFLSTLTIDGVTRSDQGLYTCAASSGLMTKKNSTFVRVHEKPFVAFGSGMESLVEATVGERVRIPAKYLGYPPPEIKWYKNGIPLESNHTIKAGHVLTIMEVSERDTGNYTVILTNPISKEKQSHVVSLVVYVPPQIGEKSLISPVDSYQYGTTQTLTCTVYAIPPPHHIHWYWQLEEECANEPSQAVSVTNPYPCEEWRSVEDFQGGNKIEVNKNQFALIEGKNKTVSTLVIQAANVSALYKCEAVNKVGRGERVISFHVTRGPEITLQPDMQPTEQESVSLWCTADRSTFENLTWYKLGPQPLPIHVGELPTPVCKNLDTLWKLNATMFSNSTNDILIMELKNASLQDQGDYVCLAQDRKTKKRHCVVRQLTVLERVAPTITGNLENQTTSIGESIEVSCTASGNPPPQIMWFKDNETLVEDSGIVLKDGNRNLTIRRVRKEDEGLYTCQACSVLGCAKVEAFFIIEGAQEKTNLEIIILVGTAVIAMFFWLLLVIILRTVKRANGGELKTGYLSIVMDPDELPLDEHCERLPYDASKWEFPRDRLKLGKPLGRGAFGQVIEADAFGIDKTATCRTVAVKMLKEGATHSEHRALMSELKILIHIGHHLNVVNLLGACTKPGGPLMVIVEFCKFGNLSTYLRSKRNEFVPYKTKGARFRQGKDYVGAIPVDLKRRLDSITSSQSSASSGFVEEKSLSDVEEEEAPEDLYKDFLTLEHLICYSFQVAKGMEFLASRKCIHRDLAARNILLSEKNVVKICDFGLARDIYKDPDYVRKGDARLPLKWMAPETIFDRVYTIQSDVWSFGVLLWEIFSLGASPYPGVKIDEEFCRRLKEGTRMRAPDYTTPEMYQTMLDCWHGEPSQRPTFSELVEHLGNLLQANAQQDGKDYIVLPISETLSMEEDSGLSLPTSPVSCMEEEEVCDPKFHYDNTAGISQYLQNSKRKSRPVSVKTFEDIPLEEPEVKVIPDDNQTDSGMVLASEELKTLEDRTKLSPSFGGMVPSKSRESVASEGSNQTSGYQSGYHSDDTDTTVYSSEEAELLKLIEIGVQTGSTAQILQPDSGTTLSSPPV

Molecule | reduction in scratch wound size (denuded area) (HUVECs [1]) | proliferation (cell number relative to unsupplemented growth media) (HUVECs [2]) | LDPI perfusion ratio (ischemic/non-ischemic limb) (ischemic hind-limb; [6]) | limb motor function score (ischemic hind-limb; day 21) | tissue (limb) salvage score (ischemic hind-limb; day 21) | LDPI perfusion ratio (ischemic/non-ischemic limb) (ischemic hind-limb; day 28) | Rota Rod walking time prior to failure (ischemic hind-limb; day 28) [s] | limb motor function score (ischemic hind-limb; day 28) | tissue (limb) salvage score (ischemic hind-limb; day 28) | number of CD31+ capillaries in ischemic limb muscle (ischemic hind-limb) | fraction of apoptotic cells (Annexin V-PE positive) (HUVECs [3]) | blood vessels relative to the initial value [4] | VEGFR2 phosphorylation level relative to untreated control [5] | amount of phosphorylated VEGFR1 relative to untreated control (sandwich ELISA on HUVEC lysates, 1 uM, 2 min) (VEGF receptor 1) | further results
Native VEGF (from UniProt P15692 27-191) (ligand) |  |  |  |  |  |  |  |  |  |  |  |  |  |  | amount of phosphorylated VEGFR1 relative to untreated control (sandwich ELISA on HUVEC lysates, 100 ng/ml, 2 min) (fold of untreated control) (VEGF receptor 1): 1.31
Ac-KLTWQELYQLKYKGI-NH2 [VEGF peptide] | 52.5%±4.1% | 98.4%±0.7% | 0.54±0.06 | 3.41±0.21 | 3.45±0.25 | 0.52±0.06 | 115.6 ± 10.9 | 3.50±0.17 | 3.45±0.25 | 949±48 /mm2 | 23.4%±1.1% | 139%±11% | 1.343±0.050 |  | 
CH3(CH2)14C(O)—VVAAKKKGKLTAQELVFLKVKGI-NH2 (Palmitoyl-VVAAKKKGKLTAQELVFLKVKGI-NH2; SMILES CCCCCCCCCCCCCCCC(=O)N[C@H](C(=O)N[C@H](C(=O)N[C@@H](C)C(=O)N[C@@H](C)C(=O)N[C@@H](CCCCN)C(=O)N[C@@H](CCCCN)C(=O)N[C@@H](CCCCN)C(=O)NCC(=O)N[C@@H](CCCCN)C(=O)N[C@@H](CC(C)C)C(=O)N[C@H](C(=O)N[C@@H](C)C(=O)N[C@@H](CCC(N)=O)C(=O)N[C@@H](CCC(=O)O)C(=O)N[C@@H](CC(C)C)C(=O)N[C@H](C(=O)N[C@@H](Cc1ccccc1)C(=O)N[C@@H](CC(C)C)C(=O)N[C@@H](CCCCN)C(=O)N[C@H](C(=O)N[C@@H](CCCCN)C(=O)NCC(=O)N[C@H](C(N)=O)[C@@H](C)CC)C(C)C)C(C)C)[C@@H](C)O)C(C)C)C(C)C) [mutant PA] | 30.0%±7.3% | 101.8%±1.4% | 0.42±0.05 | 2.86±0.14 | 3.14±0.26 | 0.48±0.05 | 106.7 ± 17.6 | 3.29±0.18 | 3.43±0.37 | 954±81 /mm2 | 24.2%±1.1% | 149%±8% | 1.001±0.103 |  | 
B1 |  |  |  |  |  |  |  |  |  |  |  |  |  | 1.63 fold of untreated control | 
Ac-KLTWQELYQLKYKGI-NH2 [VEGF peptide (Ac-KLTWQELYQLKYKGI-NH2)] |  |  |  |  |  |  |  |  |  |  |  |  |  | 1.33 fold of untreated control | 
B2 |  |  |  |  |  |  |  |  |  |  |  |  |  | 0.931 fold of untreated control | 
